Measured values: patent publication US7390812B2, “N, N'-disubstituted piperazine compounds and their use as analgesics” (Gruenenthal GmbH, priority 2001, dated 2008)
pKd: −log10 of the molar value.

What follows are molecules tested against T1, NA transporter (Rattus norvegicus, UniProt Q63380) (assay: Noradrenaline reuptake inhibition (NA uptake inhibition) in synaptosomes). Conditions: synaptosomes from hypothalamus of male rat brains.
T1 construct: synaptosomes were freshly isolated from rat brain regions; from tissue; host or cells: rat hypothalamus synaptosomes (P2 fraction)
Type: biochemical
Protocol: In order to be able to carry out these in vitro studies, synaptosomes were freshly isolated from rat brain regions. A so-called “P2” fraction was used, which was prepared according to the instructions given by Gray and Whittaker (E. G. Gray and V. P. Whittaker (1962) J. Anat. 76, 79-88).

T1 sequence (Q63380 1-617): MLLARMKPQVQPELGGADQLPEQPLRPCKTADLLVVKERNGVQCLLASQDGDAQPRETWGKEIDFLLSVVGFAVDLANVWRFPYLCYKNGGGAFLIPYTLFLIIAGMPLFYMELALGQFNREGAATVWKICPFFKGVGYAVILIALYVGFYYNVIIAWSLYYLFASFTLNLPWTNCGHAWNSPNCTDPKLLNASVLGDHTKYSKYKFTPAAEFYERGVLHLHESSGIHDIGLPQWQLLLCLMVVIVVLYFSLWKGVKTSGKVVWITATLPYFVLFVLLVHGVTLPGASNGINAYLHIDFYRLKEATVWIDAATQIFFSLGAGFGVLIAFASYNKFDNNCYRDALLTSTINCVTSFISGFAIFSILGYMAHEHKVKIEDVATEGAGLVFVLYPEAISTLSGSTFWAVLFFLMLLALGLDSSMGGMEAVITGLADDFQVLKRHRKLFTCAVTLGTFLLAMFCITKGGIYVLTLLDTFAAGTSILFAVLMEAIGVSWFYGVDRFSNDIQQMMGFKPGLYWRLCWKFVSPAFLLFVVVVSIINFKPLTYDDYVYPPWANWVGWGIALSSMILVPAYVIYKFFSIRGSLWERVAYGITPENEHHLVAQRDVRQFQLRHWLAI

| inhibition at 10 µM [%] | Molecule |
| --- | --- |
| 51 | CN1CCN(CC2CCCCC2(O)c2ccc(F)cc2)CC1 (stereo not shown) [1-(4-Fluoro-phenyl)-2-(4-methyl-piperazin-1-ylmethyl)-cyclohexanol] |
| 55 | CCC(O)(Cc1cccc(C)c1)C(C)CN1CCN(c2cccc(Cl)c2)CC1 (stereo not shown) [1-[4-(3-Chloro-phenyl)-piperazin-1-yl]-2-methyl-3-(3-methyl-benzyl)-pentan-3-ol] |
| 65 | CCC(O)(c1cccc(C(F)(F)F)c1)C(C)CN1CCN(c2cccc(Cl)c2)CC1 (stereo not shown) [1-[4-(3-Chloro-phenyl)-piperazin-1-yl]-2-methyl-3-(3-trifluoromethyl-phenyl)-pentan-3-ol] |
| 42 | CCC(O)(c1cccc(C)c1)C(C)CN1CCN(c2cccc(Cl)c2)CC1 (stereo not shown) [1-[4-(3-Chloro-phenyl)-piperazin-1-yl]-2-methyl-3-m-tolyl-pentan-3-ol] |
| 41 | CCC(O)(c1ccc(C)cc1)C(C)CN1CCN(c2cccc(Cl)c2)CC1 (stereo not shown) [1-[4-(3-Chloro-phenyl)-piperazin-1-yl]-2-methyl-3-p-tolyl-pentan-3-ol] |
| 61 | CCC(O)(c1ccccc1)C(C)CN1CCN(c2cccc(Cl)c2)CC1 (stereo not shown) [1-[4-(3-Chloro-phenyl)-piperazin-1-yl]-2-methyl-3-phenyl-pentan-3-ol] |
| 45 | CCC(O)(c1cccs1)C(C)CN1CCN(c2cccc(Cl)c2)CC1 (stereo not shown) [1-[4-(3-Chloro-phenyl)-piperazin-1-yl]-2-methyl-3-thiophen-2-yl-pentan-3-ol] |
| 50 | CCC(O)(Cc1cccc(F)c1)C(C)CN1CCN(c2cccc(Cl)c2)CC1 (stereo not shown) [1-[4-(3-Chloro-phenyl)-piperazin-1-yl]-3-(3-fluoro-benzyl)-2-methyl-pentan-3-ol] |
| 53 | CCC(O)(c1cccc(F)c1)C(C)CN1CCN(c2cccc(Cl)c2)CC1 (stereo not shown) [1-[4-(3-Chloro-phenyl)-piperazin-1-yl]-3-(3-fluoro-phenyl)-2-methyl-pentan-3-ol] |
| 39 | CCC(O)(c1ccc(F)c(C)c1)C(C)CN1CCN(c2cccc(Cl)c2)CC1 (stereo not shown) [1-[4-(3-Chloro-phenyl)-piperazin-1-yl]-3-(4-fluoro-3-methyl-phenyl)-2-methyl-pentan-3-ol] |
| 53 | CCC(O)(c1ccc(F)cc1)C(C)CN1CCN(c2cccc(Cl)c2)CC1 (stereo not shown) [1-[4-(3-Chloro-phenyl)-piperazin-1-yl]-3-(4-fluoro-phenyl)-2-methyl-pentan-3-ol] |
| 45 | CCC(O)(c1ccc(OC)cc1)C(C)CN1CCN(c2cccc(Cl)c2)CC1 (stereo not shown) [1-[4-(3-Chloro-phenyl)-piperazin-1-yl]-3-(4-methoxy-phenyl)-2-methyl-pentan-3-ol] |
| 73 | CCC(O)(C(C)CN1CCN(c2cccc(Cl)c2)CC1)C1CCCCC1 (stereo not shown) [1-[4-(3-Chloro-phenyl)-piperazin-1-yl]-3-cyclohexyl-2-methyl-pentan-3-ol] |
| 52 | CCC(O)(CCc1ccccc1)C(C)CN1CCN(c2cccc(Cl)c2)CC1 (stereo not shown) [1-[4-(3-Chloro-phenyl)-piperazin-1-yl]-3-ethyl-2-methyl-5-phenyl-pentan-3-ol] |
| 55 | CCC(O)(CCCc1ccccc1)C(C)CN1CCN(c2cccc(Cl)c2)CC1 (stereo not shown) [1-[4-(3-Chloro-phenyl)-piperazin-1-yl]-3-ethyl-2-methyl-6-phenyl-hexan-3-ol] |
| 53 | CCC(O)(c1cccc(Cl)c1)C(C)CN1CCN(c2cccc(Cl)c2)CC1 (stereo not shown) [3-(3-Chloro-phenyl)-1-[4-(3-chloro-phenyl)-piperazin-1-yl]-2-methyl-pentan-3-ol] |
| 39 | CCC(O)(Cc1ccc(Cl)cc1)C(C)CN1CCN(c2cccc(Cl)c2)CC1 (stereo not shown) [3-(4-Chloro-benzyl)-1-[4-(3-chloro-phenyl)-piperazin-1-yl]-2-methyl-pentan-3-ol] |
| 54 | CCC(O)(c1ccc(Cl)cc1)C(C)CN1CCN(c2cccc(Cl)c2)CC1 (stereo not shown) [3-(4-Chloro-phenyl)-1-[4-(3-chloro-phenyl)-piperazin-1-yl]-2-methyl-pentan-3-ol] |

Each molecule was assayed on binding site 2 of the sodium channel (assay: Binding investigations at sodium channel binding site 2 (BTX binding)). Conditions: 10 μM; rat cerebrocortex synaptosomes; [3H]-Batrachotoxinin A20 α-benzoate 10 nM; 37° C., 120 min.
Protocol: Binding Investigations at Sodium Channel Binding Site 2
Binding site 2 of the sodium channel is the so-called batrachotoxin (BTX) binding site. [^3H]-Batrachotoxinin A20 α-benzoate (10 nM in the batch) was used as ligand. These ion channel particles (synaptosomes) were enriched from rat cerebrocortex after Gray and Whittaker (E. G. Gray and V. P. Whittaker (1962) J. Anat. 76, 79-88). The radioactivity measured in the presence of veratridine (0.3 mM in the batch) is defined as non-specific binding.
The assay conditions were as published by Pauwels, Leysen and Laduron (P. J. Pauwels, J. E. Leysen and P. M. Laduron (1986) Eur. J. Pharmacol. 124, 291-298). Incubation at 37° C. for 120 min.

| Molecule | BTX binding at 10 μM [%] inhibition [%] |
| --- | --- |
| CN1CCN(CC2CCCCC2(O)c2ccc(Cl)cc2Cl)CC1 (stereo not shown) [1-(2,4-Dichloro-phenyl)-2-(4-methyl-piperazin-1-ylmethyl)-cyclohexanol] | 55 |
| COc1ccc(C2(O)CCCCCCC2CN2CCN(C)CC2)cc1 (stereo not shown) [1-(4-Methoxy-phenyl)-2-(4-methyl-piperazin-1-ylmethyl)-cyclooctanol] | 42 |
| CN1CCN(CC2CCCCCC2(O)c2ccc(C(C)(C)C)cc2)CC1 (stereo not shown) [1-(4-tert-Butyl-phenyl)-2-(4-methyl-piperazin-1-ylmethyl)-cycloheptanol] | 80 |
| CN1CCN(CC2CCCCCCC2(O)c2ccc(C(C)(C)C)cc2)CC1 (stereo not shown) [1-(4-tert-Butyl-phenyl)-2-(4-methyl-piperazin-1-ylmethyl)-cyclooctanol] | 64 |
| CN1CCN(CC2CCCCCC2(O)Cc2ccccc2)CC1 (stereo not shown) [1-Benzyl-2-(4-methyl-piperazin-1-ylmethyl)-cycloheptanol] | 86 |
| CN1CCN(CC2CCCCC2(O)Cc2ccccc2)CC1 (stereo not shown) [1-Benzyl-2-(4-methyl-piperazin-1-ylmethyl)-cyclohexanol] | 71 |
| CN1CCN(CC2CCCCCCC2(O)Cc2ccccc2)CC1 (stereo not shown) [1-Benzyl-2-(4-methyl-piperazin-1-ylmethyl)-cyclooctanol] | 75 |
| CN1CCN(CC2CCCCCC2(O)C2CCCC2)CC1 (stereo not shown) [1-Cyclopentyl-2-(4-methyl-piperazin-1-ylmethyl)-cycloheptanol] | 55 |
| CN1CCN(CC2CCCCC2(O)C2CCCC2)CC1 (stereo not shown) [1-Cyclopentyl-2-(4-methyl-piperazin-1-ylmethyl)-cyclohexanol] | 49 |
| CN1CCN(CC2CCCCCCC2(O)C2CCCC2)CC1 (stereo not shown) [1-Cyclopentyl-2-(4-methyl-piperazin-1-ylmethyl)-cyclooctanol] | 48 |
| CN1CCN(CC2CCCCC2(O)CCCc2ccccc2)CC1 (stereo not shown) [2-(4-Methyl-piperazin-1-ylmethyl)-1-(3-phenyl-propyl)-cyclohexanol] | 80 |
| CN1CCN(CC2CCCCCCC2(O)CCCc2ccccc2)CC1 (stereo not shown) [2-(4-Methyl-piperazin-1-ylmethyl)-1-(3-phenyl-propyl)-cyclooctanol] | 87 |
| Cc1cccc(C2(O)CCCCCC2CN2CCN(C)CC2)c1 (stereo not shown) [2-(4-Methyl-piperazin-1-ylmethyl)-1-m-tolyl-cycloheptanol] | 44 |
| Cc1ccccc1C1(O)CCCCC1CN1CCN(C)CC1 (stereo not shown) [2-(4-Methyl-piperazin-1-ylmethyl)-1-o-tolyl-cyclohexanol] | 50 |
| CN1CCN(CC2CCCCCCC2(O)c2cccs2)CC1 (stereo not shown) [2-(4-Methyl-piperazin-1-ylmethyl)-1-thiophen-2-yl-cyclooctanol] | 64 |
| CN1CCN(CC2CCCCC2(O)C2CCCCC2)CC1 (stereo not shown) [2-(4-Methyl-piperazin-1-ylmethyl)-bicyclohexyl-1-ol] | 63 |
| CCC(O)(c1ccccc1C)C(C)CN1CCN(C)CC1 (stereo not shown) [2-Methyl-1-(4-methyl-piperazin-1-yl)-3-o-tolyl-pentan-3-ol] | 43 |
| CCC(O)(c1ccc(C)cc1)C(C)CN1CCN(C)CC1 (stereo not shown) [2-Methyl-1-(4-methyl-piperazin-1-yl)-3-p-tolyl-pentan-3-ol] | 48 |
| CCC(O)(c1ccccc1)C(C)CN1CCN(C)CC1 (stereo not shown) [2-Methyl-1-(4-methyl-piperazin-1-yl)-3-phenyl-pentan-3-ol] | 58 |
| CCC(O)(c1cccs1)C(C)CN1CCN(C)CC1 (stereo not shown) [2-Methyl-1-(4-methyl-piperazin-1-yl)-3-thiophen-2-yl-pentan-3-ol] | 47 |
| CCC(O)(c1ccc(Cl)cc1)C(C)CN1CCN(C)CC1 (stereo not shown) [3-(4-Chloro-phenyl)-2-methyl-1-(4-methyl-piperazin-1-yl)-pentan-3-ol] | 59 |
| CCC(O)(c1ccc(F)c(C)c1)C(C)CN1CCN(C)CC1 (stereo not shown) [3-(4-Fluoro-3-methyl-phenyl)-2-methyl-1-(4-methyl-piperazin-1-yl)-pentan-3-ol] | 56 |
| CCC(O)(c1ccc(C(C)(C)C)cc1)C(C)CN1CCN(C)CC1 (stereo not shown) [3-(4-tert-Butyl-phenyl)-2-methyl-1-(4-methyl-piperazin-1-yl)-pentan-3-ol] | 68 |
| CCC(O)(Cc1ccccc1)C(C)CN1CCN(C)CC1 (stereo not shown) [3-Benzyl-2-methyl-1-(4-methyl-piperazin-1-yl)-pentan-3-ol] | 42 |
| CCC(O)(C(C)CN1CCN(C)CC1)C1CCCCC1 (stereo not shown) [3-Cyclohexyl-2-methyl-1-(4-methyl-piperazin-1-yl)-pentan-3-ol] | 59 |
| CCC(O)(CCCc1ccccc1)C(C)CN1CCN(C)CC1 (stereo not shown) [3-Ethyl-2-methyl-1-(4-methyl-piperazin-1-yl)-6-phenyl-hexan-3-ol] | 74 |
| C=CC(O)(CC)C(C)CN1CCN(C)CC1 (stereo not shown) [3-Ethyl-4-methyl-5-(4-methyl-piperazin-1-yl)-pent-1-en-3-ol] | 67 |

Same assay, conditions: radioligand; rat cerebrocortex synaptosomes; read-out: KD value for this binding site

| Molecule | pKd |
| --- | --- |
| [^3H]-Batrachotoxinin A20 α-benzoate [reference compound] | 7.61 |
